The source of these data is patent US20230096781A1, “METHODS OF CONTROLLING BODYWEIGHT BY MODULATING PHOSPHATIDYLINOSITOL 5-PHOSPHATE 4-KINASE BETA ACTIVITY” (University of Cincinnati, priority 2020, published 2023).

Each structure is given as a SMILES string. Residue numbers refer to the chain shown, from its start. Several values for one entry are separate records, joined by “and”; a condition that tells them apart may be missing. Equal values may be shown once.

Assay [1] concerns the target T1, PI5P4Kβ (Homo sapiens, UniProt P78356).
T1 sequence (P78356 1-416): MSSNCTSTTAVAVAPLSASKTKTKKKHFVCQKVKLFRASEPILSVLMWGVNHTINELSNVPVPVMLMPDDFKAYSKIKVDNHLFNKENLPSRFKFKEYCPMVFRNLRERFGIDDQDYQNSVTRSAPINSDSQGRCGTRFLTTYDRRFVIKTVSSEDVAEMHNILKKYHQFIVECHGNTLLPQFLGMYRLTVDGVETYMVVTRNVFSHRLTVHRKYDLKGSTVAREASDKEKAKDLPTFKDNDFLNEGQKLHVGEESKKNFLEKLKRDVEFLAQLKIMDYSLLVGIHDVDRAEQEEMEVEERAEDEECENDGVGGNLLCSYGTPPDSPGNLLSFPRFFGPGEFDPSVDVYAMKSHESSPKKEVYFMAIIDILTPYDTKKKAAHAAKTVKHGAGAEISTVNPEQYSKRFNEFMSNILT
In words: NMR-based PNT hydrolysis assay. The assay is classed as biochemical. The settings on record: WT PI5P4Kβ. How it is done: (A) The PNT hydrolysis activity of PI5P4Kβ. indicative of the kinase activity of PI5P4Kβ. was assessed by the signal intensity ratios of diphosphorylated/triphosphorylated nucleotides after the reaction. The average values from three experiments are shown with error bars (SD). Highly hydrolyzed nucleotides (>0.1 of the ratios) were shown for GTP, ITP, XTP, 6-thio-GTP, and 2a-ATP. (B), (C), and (D) show interactions of the PI5P4Kβ-ITP, PI5P4Kβ-XTP, and PI5P4Kβ-2a-ATP complexes, respectively. Dotted lines represent hydrogen bonds between the PNTs and PI5P4Kβ.
(§1) Next, the mechanism of the GTP preference of PI5P4Kβ was investigated using a series of ATP and GTP analogs. Based on analysis of the GTP-PI5P4Kβ interaction (FIG. 10(B)), 10 PNTs with different configurations at the 2nd and 6th positions of the purine base (NH2(2) and O(6) in guanine base, respectively) were chosen (FIG. 10(A)). The hydrolysis activities of PI5P4Kβ for these PNTs were quantified by an NMR-based assay (data not shown). […] On the other hand, O(6) seems to be required for the activity. […] This view is also supported by the larger energetic contribution of the O(6) moiety compared to the NH2(2) moiety in the FMO interaction analysis between GTP and PI5P4Kβ (FIG. 15).

The target of assay [2] is T2, PI5P4KβF205L (Homo sapiens, UniProt P78356, F205L).
T2 sequence (P78356 1-416 F205L): T1 sequence (P78356 1-416) with F205L
In words: PNT hydrolysis activity of mutant PI5P4Kβ. The class given is biochemical. Here is the method:
(§2) (A)-(C) show PNT hydrolysis activity of mutant PI5P4Kβ as compared to the WT. The ratios of dephosphorylated/triphosphorylated nucleotides after reaction are shown. The N203A activity is almost negligible.
(§3) In addition, the hydrolysis activity of the mutants on four active triphosphorylated nucleotides were analyzed, XTP, ITP, 6-thio-GTP, and 2a-ATP. […] In the crystal structure of the PI5P4KβN203D-ITP complex, ITP binds in a similar manner as the WT.

The target in assay [3] is T3, PI5P4KβN203D (Homo sapiens, UniProt P78356, N203D).
T3 sequence (P78356 1-416 N203D): T1 sequence (P78356 1-416) with N203D
In words: PNT hydrolysis activity of mutant PI5P4Kβ. The class given is biochemical. How it is done:
as §2, §3

Assay [4] addresses T4, PI5P4KβT201M (Homo sapiens, UniProt P78356, T201M).
T4 sequence (P78356 1-416 T201M): T1 sequence (P78356 1-416) with T201M
Nature of the assay: PNT hydrolysis activity of mutant PI5P4Kβ. The class given is biochemical.

Assay [5] has as its target T1, PI5P4Kβ. In words: Competition assay of 32P-GTP-dependent PI(5)P phosphorylation by cold PNTs. The assay is classed as biochemical. The settings on record: 250 μM 32P-GTP, 3.2-400 μM cold PNT. How it is done:
(A) The kinase reaction was carried out in a total of 50 μl of reaction buffer (50 mM HEPES (pH 7.4), 0.2 mM EGTA, and 10 mM MgCl2) containing 20 μM of PI(5)P (d-myo-phosphatidylinositol 5-phosphate diC16) that was suspended by sonication. 250 μM of γ-^32P radiolabeled GTP was incubated with 1 μg of recombinant PI5P4Kβ for 10 min at room temperature. 20 μM of PI(5)P was used with 3 μM 1,2-dipalmitoyl-phosphatidylserine as the basal lipid. Phosphoinositides were extracted by a methanol/chloroform (1/1, v/v) mix and subjected to a thin-layer chromatography (TLC) assay using heat-activated 2% […] silica gel 60 plates. The solvent was 1-propanol/2 M acetic acid (65/35, v/v). In competition assay, 250 μM of ^32P-labeled GTP was mixed with 3.2-400 μM triphosphorylated nucleotides, and the PI(5)P phosphorylation by GTP was monitored by quantifying the amount of radiolabeled PI(4,5)P2. (B) Relative kinase activities in the presence of each PNT against those without them (i.e., only ^32P-GTP condition) are shown.
as §1

The target of assay [6] is T4, PI5P4KβT201M. The settings on record: T201M mutant; partly reported in Sumita et al., 2016; cited from earlier work.
Assay [7] concerns the target T2, PI5P4KβF205L. The settings on record: F205L mutant; partly reported in Sumita et al., 2016; cited from earlier work.
Assay [8] relates to PI5P4Kβ with mutation of Asn-203. In words: Nucleotide binding of Asn-203 mutant PI5P4Kβ. Here is the method:
The functional role of Asn-203 was analyzed, because this is the only invariant residue in the base-recognition loop of PI4P5K and PI5P4K.

Assay [9] concerns the target T1, PI5P4Kβ. The conditions noted are these: KM for GTP; cited from earlier work.
Assay [10] deals with WT PI5P4Kβ-reconstituted Pip4k2b^−/− cells. Nature of the assay: Nigericin-induced vacuolization. The assay is classed as cell-based, mouse. The conditions noted are these: within 4h after nigericin treatment. How it is done:
(§4) Next, treatment with microbial toxin nigericin, a selective K^+/H^+ exchanger that is activated in the lysosome and induces lysosome rupture and following cell death, was assessed. […] The autophagic flux in MEF, 293T, and HCT116 cells was decreased by Link17 treated cells (FIG. 7(A),(B)). In the isogenic MEFs, autophagy was decreased in Pip4k2b^−/− and F205L cells, compared to WT cells (FIG. 7(C)).

The test system is the same in assay [11]. Nature of the assay: Cell viability after nigericin treatment. The class given is cell-based, mouse. How it is done: as §4
Assay [12] concerns Pip4k2b^−/− cells. In words: Nigericin-induced vacuolization. The settings on record: within 4h after nigericin treatment. The assay is classed as cell-based, mouse. Here is the method: (D) is a graph showing cytotoxic death by nigericin was suppressed in Pip4K2b^−/− cells and F205L-PI5P4Kβ-expressing Pip4K2b−/− cells.
as §4

The term Km denotes the concentration of substrate that gives half-maximal velocity.

`Nc1nc(Cl)c2ncn(C3OC(COP(=O)(O)OP(=O)(O)OP(=O)(O)O)C(O)C3O)c2n1` (stereo not shown) [2a-6C1-PTP]: the “hydrolysis activity of PI5P4Kβ (in words)” value in assay [1] was “very low hydrolysis activity”.

Consider `Nc1nc(N)c2ncn([C@@H]3O[C@H](COP(=O)(O)OP(=O)(O)OP(=O)(O)O)[C@@H](O)[C@H]3O)c2n1` [2a-ATP], for which the “hydrolysis activity compared to WT” value in assay [2] is on record as “not affected”; in [3], “significantly reduced”; in assay [4], “more active”. Further, the “hydrolysis activity of PI5P4Kβ (in words)” value in [1] was “substantial activity”.

Consider `Nc1nc(=S)c2ncn([C@@H]3O[C@H](COP(=O)(O)OP(=O)(O)OP(=O)(O)O)[C@H](O)C3O)c2[nH]1` (stereo partly shown) [6-thio-GTP], for which the “inhibition of GTP-dependent PI(5)P phosphorylation activity” value in assay [5] was “strongly inhibited”. The “hydrolysis activity compared to WT” value in [2] is recorded as “less active”. The “hydrolysis activity of PI5P4Kβ (in words)” value in assay [1] is “substantial activity”.

In the case of `Nc1ncnc2c1ncn2[C@@H]1O[C@H](COP(=O)(O)OP(=O)(O)OP(=O)(O)O)[C@@H](O)[C@H]1O` [ATP], the nucleotide-dependent kinase activity result in assay [6] is “higher ATP-dependent activity”; in assay [7], “comparable to that of WT PI5P4Kβ”. Also, the binding of nucleotide entry in assay [8] is “markedly reduced the binding”. In addition, the figures for the “hydrolysis activity compared to WT” value in assay [2], in assay [3] and in assay [4] were “not affected”, “significantly reduced” and “more active”, respectively.

As for `Nc1nc2c(ncn2[C@@H]2O[C@H](COP(=O)(O)OP(=O)(O)OP(=O)(O)O)[C@@H](O)[C@H]2O)c(=O)[nH]1` [GTP, guanosine triphosphate], the nucleotide-dependent kinase activity result in assay [6] was “decreased GTP-dependent kinase activity”; in assay [7], “reduction of the GTP-dependent activity”. Moreover, the binding of nucleotide result in [8] was “markedly reduced the binding”. The Michaelis constant (Km) in [9] is ~100 µM and ~88 µM. Also, the results for the “hydrolysis activity compared to WT” value in assay [2] and in [3] were “less active” and “significantly reduced”, respectively.

As to `O=P(O)(O)OP(=O)(O)OP(=O)(O)OC[C@H]1O[C@@H](n2cnc3c(O)ncnc32)[C@H](O)[C@@H]1O` [ITP, inosine triphosphate], in [5], the “inhibition of GTP-dependent PI(5)P phosphorylation activity” value is “strongly inhibited”. In addition, in assay [2], the “hydrolysis activity compared to WT” value was “less active”. Also, the “hydrolysis activity compared to WT” value in [3] is on record as “hyperactive”. Also, in assay [1], the “hydrolysis activity compared to GTP” value is on record as 1.3 times and the “hydrolysis activity of PI5P4Kβ (in words)” value is “substantial activity”.

For `COc1nc(N)nc2c1ncn2[C@@H]1O[C@H](COP(=O)(O)OP(=O)(O)OP(=O)(O)O)[C@@H](O)[C@H]1O` [O6-me-GTP], the “hydrolysis activity of PI5P4Kβ (in words)” value in assay [1] was “very low hydrolysis activity”.

On to `O=c1[nH]c(=O)c2ncn([C@@H]3O[C@H](COP(=O)(O)OP(=O)(O)OP(=O)(O)O)[C@@H](O)[C@H]3O)c2[nH]1` [XTP, xanthosine triphosphate], for which the “inhibition of GTP-dependent PI(5)P phosphorylation activity” value in assay [5] is “strongly inhibited”. The “hydrolysis activity compared to WT” value in assay [2] is reported as “diminished susceptibility”. Further, the “hydrolysis activity compared to WT” value in assay [3] was “significantly reduced”. Moreover, in assay [1], the “hydrolysis activity compared to GTP” value came out at 1.9 times and the “hydrolysis activity of PI5P4Kβ (in words)” value is recorded as “substantial activity”.

As to `CO[C@@H]1C[C@@H](C[C@H]2CC[C@H](C)[C@H]([C@@H](C)C(=O)O)O2)O[C@]2(O[C@](C)([C@H]3CC[C@@](C)([C@@H]4O[C@@H]([C@H]5O[C@@](O)(CO)[C@H](C)C[C@@H]5C)C[C@@H]4C)O3)C[C@H]2C)[C@@H]1C` [nigericin], the “hypervacuolization after nigericin treatment” value in assay [10] is given as “hypervacuolization was observed”; in [12], “not”. For the same compound, in [11], the cell viability entry is “decreased cell viability”.
